≈ marks a conversion by molar mass, not a printed value.
B1: EMD72000-ILs-dox (conjugate, chains of the INN, looked up)
VH: QVQLVQSGAEVKKPGASVKVSCKASGYTFTSHWMHWVRQAPGQGLEWIGEFNPSNGRTNYNEKFKSKATMTVDTSTNTAYMELSSLRSEDTAVYYCASRDYDYDGRYFDYWGQGTLVTVSS
VL: DIQMTQSPSSLSASVGDRVTITCSASSSVTYMYWYQQKPGKAPKLLIYDTSNLASGVPSRFSGSGSGTDYTFTISSLQPEDIATYYCQQWSSHIFTFGQGTKVEIK
modifications: doxorubicin-loaded immunoliposomes

Assays:
[1] = tested on: MDA-MB-231 wild type xenograft; experiment: Tumor xenograft model, wild type; type: in vivo; settings: for antitumor effect (tumor growth): i.v. 10 mg doxorubicin/kg once weekly for 3 weeks, total 30 mg dox/kg, compared to saline
Procedure: (§1) Efficacy for non-targeted liposomes versus anti-EGFR immunoliposomes were studied in the MDA-MB-231 wild type and resistant breast cancer xenograft tumor model. Swiss nu/nu mice (5-6 weeks; Charles River, France) were injected subcutaneously (s.c.) with EGFR-overexpressing MDA-MB-231 tumor cells (1×10^7 cells, wild type or resistant) into the back of the animal. […] Free drug was injected on the same schedule as liposomes or immunoliposomes intravenously at their MTD of 30 mg dox/kg for doxorubicin. In control groups, saline was administered intravenously at the same injection volume and schedule.
(§2) Tumor growth was monitored for a period of 55-100 days post tumor implantation. Mice were weighted and examined for toxicity three times a week. Tumor measurements were performed 2-3 times weekly using a caliper, and tumor volumes were calculated using the equation: (length × width^2)/2.
In the wild-type MDA-MB-231 xenograft model lacking mdr features, anti-EGFR immunoliposome-dox was administered i.v. at a total dose of 30 mg dox/kg divided into three weekly doses of 10 mg/kg. […] Control treatments included: saline; free doxorubicin and non-targeted liposomal doxorubicin (commercial pegylated liposomal doxorubicin; PLD) at the same dose and schedule as immunoliposomes.
(§3) In addition, a multivariate (rank) test was performed based on the sums of ranks for each mouse. Tumor size at each time point after last treatment was ranked across all mice for that day and the ranks were summed. The sum of the ranks was compared in each case for two treatments by a 2-sample t-test (42).

[2] = tested on: MDA-MB-231 Vb100 xenograft; experiment: Tumor xenograft model, multi-drug resistant; type: in vivo; settings: i.v. 10 mg doxorubicin/kg once weekly for 3 weeks, total 30 mg dox/kg, compared to saline
Procedure: as §1, §2
Comparators included saline, free doxorubicin and non-targeted liposomal doxorubicin (commercial pegylated liposomal doxorubicin; PLD) at the same dose and schedule as immunoliposomes.
as §3

MDA-MB-231/mdr cells = experiment: Accumulation of doxorubicin in the cytoplasma and nuclei; type: cell-based, human; settings: multidrug resistant tumor cells
Procedure: For comparative accumulation studies, tumor cells (HT-29, HT-29 ROB, MDA-MB-231 or MDA-MB-231 Vb100) have been plated at a density of 200,000 cells per well in 12-well plates. Free doxorubicin, non-targeted liposomal doxorubicin (PLD) and immunoliposomal doxorubicin have been applied at a doxorubicin concentration of 3 μg/ml for 2 h at 37° C., followed by 2 washing rounds with media. Verapamil was added to the experiment in a concentration of 0, 10 or 100 μM. After another 2 h incubation without any treatment cells were analyzed as follows:
After removing the media, cells were washed once with 1 ml of culture medium containing FCS, followed by 1 ml of PBS with calcium and magnesium at room temperature (RT) for 3 min. […] For nuclear accumulation of doxorubicin the pellet with the nuclei was washed twice with 500 μl PBS containing 1% C100T and using subsequent centrifugation as described before. After careful removing of the final supernatant, doxorubicin from the pellets was extracted overnight by 400 μl 50% acid methanol.
From both cytoplasmic and nuclear extracts, 300 μl were transferred into a 96-well plate and measured by a “SpertraMax Gemini Fluorimeter” (Molecular Devices).

MDA-MB-231 Vb100 = experiment: Cytotoxicity study, MTT staining; type: cell-based, human
Procedure: (§4) Specific cytotoxicity of EGFR-targeted immunoliposomes containing doxorubicin was evaluated in target cells plated at a density of 8,000 cells per well in 96-well plates and allowed to grow overnight. Immunoliposomes or control treatments were applied for 2 h at 37° C., followed by washing with PBS and re-adding growth media. Cells were further incubated at 37 DC for 3 days and analyzed for cell viability using 3-(4,5-dimethylthiazol-2-yl)-2,5-diphenyl tetrazolium bromide (MTT) staining (41). For the cytotoxicity studies using the efflux pump inhibitor verapamil, this compound was added to the media at a concentration of 100 μM during the complete experiment.

HT-29 WT = experiment: Cytotoxicity study, MTT staining; type: cell-based, human
Procedure: as §4

HT-29 RDB = experiment: Cytotoxicity study, MTT staining; type: cell-based, human
Procedure: as §4

Row | Molecule | antitumor effect (tumor growth) [1] | antitumor effect (tumor growth) [2] | antitumor effect (tumor growth) ([2]; listed as free doxorubicin) | intracellular distribution (MDA-MB-231/mdr cells) | IC50 (MDA-MB-231 Vb100; highly drug resistant, 2 h treatment, MTT after 3 days) [µg/mL] | IC50 (MDA-MB-231 Vb100; in the presence of verapamil (100 μM)) [µg/mL] | IC50 (HT-29 WT; non-resistant HT-29 cells, summary in description) [μg dox/ml] | IC50 (HT-29 WT; treatment for 2 h, MTT after 3 days) [µg/mL] | IC50 (HT-29 RDB; HT-29/mdr cells, summary in description) [μg dox/ml] | IC50 (HT-29 RDB; treatment for 2 h, MTT after 3 days, multi-drug resistant sub cell line) [µg/mL] | tumor regrowth during follow-up ([1]; after day 77 until end of observation (day 100))
1 | COc1cccc2c1C(=O)c1c(O)c3c(c(O)c1C2=O)C[C@@](O)(C(=O)CO)C[C@@H]3O[C@H]1C[C@H](N)[C@H](O)[C@H](C)O1 [free dox, doxorubicin] | some tumor growth inhibition | failed to show any activity | did not show any tumor growth inhibition | efficiently pumped out | 130 (≈ 239 µM) | 0.9 | 0.36 | 0.3 (≈ 0.552 µM) | 6.0 | 9.5 (≈ 17.5 µM) | 
2 | B1 | substantial tumor regressions | substantial tumor regressions |  |  |  |  |  |  |  |  | did not show growth activity

From patent publication US20100239652A1, “IMMUNOLIPOSOMES FOR TREATMENT OF CANCER” (UNIVERSITATSSPITAL BASEL, priority 2008, published 2010)
